Measured values published in patent EP4606382A1, “INHIBITORS OF TANGO1 ACTIVITY AND METHODS OF USE THEREOF” (Fundació Centre de Regulació Genòmica, priority 2024, dated 2025).
Ends that are not written are not given here.

System: normal human skin fibroblasts
Test: LDH release cytotoxicity assay
Format: cell-based
Details: primary human skin fibroblasts
Protocol: To test if the peptides efficiently reduce collagen secretion also in primary cells derived from human individuals, normal human skin fibroblasts, the key producers of collagen in connective tissues, were treated with the peptides P2 and P5.
Cytotoxic effects induced by peptide treatment were determined by lactate dehydrogenase (LDH) levels in fibroblast supernatants using Cytotoxicity Assay (Promega G1780) according to the manufacturer's instructions.

Substance	cytotoxic effects (LDH release)
LRQKVEILNELYQQKEMALQKKLSQEEYERGLRKRLRKFRNK-NH2 [Peptide P2]	neither P2 nor P5 nor P2+P5 exerted cytotoxic effects
LEKEEKLSKVDEKISHATEELETYRKRAKDLGLRKRLRKFRNK-NH2 [Peptide P5]	neither P2 nor P5 nor P2+P5 exerted cytotoxic effects
